Series [1] concerns DBA/Lac mice injected with type II chick collagen. Nature of the series: Type II collagen arthritis in mice, oral 3-25 mg/kg/day (Example 14). It counts as in vivo. The note with it: gavage 3 to 25 mg/kg/day in phosphate buffered saline, day 21 to day 35; scale 0-3. The method, then: DBA/Lac mice were injected with 200 μg of type II chick collagen emulsified in Complete Freund's Adjuvant on day 0 and on day 21. Mu-Phe-HPhe-O-Ph was suspended in phosphate buffered saline and administered by gavage from day 21 until sacrifice at day 35. Doses of between 3 mg/kg/day and 25 mg/kg/day were used, with the daily dosage being held constant over time for each test. The severity of joint inflammation was evaluated grossly at seven day intervals beginning on day 21. The effect of oral administration of Mu-Phe-HPhe-O-Ph on the severity of bone lesions in adjuvant-induced arthritis was determined by evaluating osseous mineralization, periostat proliferation, bone erosion, joint space narrowing and osseous fragmentation. All lesions were scored on a scale of 0 (normal architecture) to 3 (severe or marked changes). Values calculated were mean values ±1 std. error of the mean.

Series [2] has as its target Soluble extracts of P. falciparum (cysteine proteinase). Nature of the series: Proteolytic activity of P. falciparum soluble extracts, substrate Z-Phe-Arg-AFC. The format is biochemical. The note with it: read-out: IC50, proteolytic activity of P. falciparum extract.
Procedure: Soluble extracts of P. falciparum and P. vinckei were prepared and proteolytic activity was assayed with fluorogenic peptide substrate Z-Phe-Arg-AFC. […] The concentrations at which activity was inhibited by 50% (IC50) was calculated.
Soluble extracts of P. falciparum and P. vinckei were prepared and proteolytic activity was assayed with fluorogenic peptide substrate Z-Phe-Arg-AFC. […] The concentration at which activity was inhibited by 50%. (IC50) was calculated.
Soluble extracts of P. falciparum and P. vinckei were prepared and proteolytic activity was assayed with fluorogenic peptide substrate Z-Phe-Arg-AFC. […] The concentration at which activity was inhibited by 50% (IC50) was calculated.
The next series relates to experimental gingivitis. Nature of the series: Experimental gingivitis in human subjects. The format is in vivo. As to conditions: twenty human subjects, inhibitor placed at test sites and sealed with Coe-pak for a week, blind, placebo control. The source says:
Treatment of Gingivitis with Mu-Phe-HPhe-O-Ph. The effect of the inhibitor on gingival inflammation was studied by investigating its ability to prevent the development of experimental gingivitis. Twenty human subjects with healthy gingiva and no periodontal disease were recruited. The subjects received oral hygiene instruction and scaling prior to baseline. The test sites were the mesibuccal crevices on the upper first and second molars and premolars (bicuspids). Acrylic shields were made to cover the gingival margins of these teeth and were worn during oral hygiene to prevent brushing of the test and control sites. During the test period of three weeks the subjects were told to brush only the lower teeth and upper anteriors and to ear the shields during brushing. The left side was used as the test side and the right was the control side in 10 subjects. The sides were reversed in the other 10 subjects so the subjects could act as their own controls. Thirty second GCF samples were taken prior to clinical measurements at baseline and at 1, 2, 3 and 4 weeks. These were assayed for cathepsins B and L-like activities. Clinical measurements of gingival index (GI), gingival bleeding index (GBI) and plaque index (PLI) were taken at test and control sites at zero, one, two, three and four weeks. […]

Series [3] deals with Soluble extracts of P. vinckei. Nature of the series: Proteolytic activity of P. vinckei soluble extracts, substrate Z-Phe-Arg-AFC. It counts as biochemical. The note with it: read-out: IC50, proteolytic activity of P. vinckei extract. The method, then: Treatment of Malaria with Mu-Phe-HPhe-O-Ph. Soluble extracts of P. falciparum and P. vinckei were prepared and proteolytic activity was assayed with fluorogenic peptide substrate Z-Phe-Arg-AFC. The activity of control samples was compared with activities in the presence of multiple concentrations of Mu-Phe-HPhe-O-Ph. The concentrations at which activity was inhibited by 50% (IC50) was calculated.
Treatment of Malaria with Mu-Leu-HPhe-O-Ph. Soluble extracts of P. falciparum and P. vinckei were prepared and proteolytic activity was assayed with fluorogenic peptide substrate Z-Phe-Arg-AFC. The activity of control samples was compared with activities in the presence of multiple concentrations of Mu-Leu-HPhe-O-Phe. The concentration at which activity was inhibited by 50%. (IC50) was calculated.
Treatment of Malaria with Mu-Phe-Arg(NO2)-O-Ph. Soluble extracts of P. falciparum and P. vinckei were prepared and proteolytic activity was assayed with fluorogenic peptide substrate Z-Phe-Arg-AFC. The activity of control samples was compared with activities in the presence of multiple concentrations of Mu-Phe-Arg(NO2)-O-Ph. The concentration at which activity was inhibited by 50% (IC50) was calculated.
Treatment of Malaria with Mu-Tyr(OCH3)2 -HPhe-O-Ph. Soluble extracts of P. falciparum and P. vinckei were prepared and proteolytic activity was assayed with fluorogenic peptide substrate Z-Phe-Arg-AFC. The activity of control samples as compared with activities in the presence of multiple concentrations of Mu-Tyr(OCH3)2 -HPhe-O-Ph. The concentration at which activity was inhibited by 50% (IC50) was calculated.

The subject of another series is bone resorption. Nature of the series: In vivo bone resorption by urinary 14C-tetracycline excretion in rats. The method, then:
Treatment of Osteo Arthritis with Mu-Phe-HPhe-O-Ph. The skeletons of young growing rats were radioactively labelled by injections with ^14 C-tetracycline over a 10 day period. The amount of bone resorption was then determined each day as the amount of radioactivity excreted in the urine. After 10 days of control excretion, test compounds were administered for three days subcutaneously and their effects on the daily excretion of tetracycline were determined. Tested compounds were dissolved in DMSO/PEG at a concentration of 25 mg/ml and were injected once per day subcutaneously in a volume of 2 ml/kg. Treatment of Osteo Arthritis with Mu-Leu-HPhe-O-Ph. The skeletons of young growing rats were radioactively labelled by injections with ^14 C-tetracycline over a 10 day period. The amount of bone resorption was then determined each day as the amount of radioactivity excreted in the urine. After 10 days of control excretion, test compounds were administered for three days subcutaneously and their effects on the daily excretion of tetracycline were determined. Tested compounds were dissolved in DMSO/PEG at a concentration of 25 mg/ml and were injected once per day subcutaneously in a volume of 2 ml/kg.

The term IC50 denotes the concentration that gives 50% inhibition.

Turning to `O=C(O)Cc1ccccc1OCC(=O)[C@H](CCc1ccccc1)NC(=O)[C@H](Cc1ccccc1)NC(=O)N1CCOCC1` [Mu-Phe-HPhe-O-Ph, (4-morpholinylcarbonyl)-L-phenylalanyl-L-homophenylalanyl-(2-carboxymethyl)phenoxymethyl ketone], the “bone lesion severity values vs control animals” value in series [1] is reported as “significantly (p<0.05) lower than the values of control animals”. The IC50 in series [2] stood at 3 nM; in series [3], 5.1 nM. In addition, the “GI, GBI, PLI and cysteine proteinase levels at test vs control sites” value with experimental gingivitis is on record as “reduced all parameters tested at the test sites”. The “inhibition of bone resorption in vivo as measured by tetracycline excretion” value with bone resorption (subcutaneous once per day for three days, 25 mg/ml in DMSO/PEG, 2 ml/kg) was “as great as that of a maximal dose of calcitonin”. The “time of maximum effect after dosing commenced” value in the series on bone resorption (subcutaneous once per day, 25 mg/ml, 2 ml/kg) is 24 h. Moreover, in the series with bone resorption (subcutaneous, DMSO/PEG, three days, histology: inflammation of subcutaneous fat, tissue necrosis), the “findings at the sites of injection at end of experiment” value is “lesions were visible at the sits of injection”.

(Values after patent US5374623A, “Cysteine protease inhibitors effective for in vivo use” (Prototek, Inc., priority 1992, dated 1994).)
